Several values for one entry are separate records, joined by “and”; a condition that tells them apart may be missing. Identical values can stand only once.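 Cultured in 96-well plates, cells were exposed to test compound for 48 hours across five concentrations. Abbreviation: GI50, concentration required for 50% inhibition of growth. TGI denotes the concentration required for complete inhibition of growth.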
Experiments:
Assay in all cases: NCI anticancer screen, dose series, 48 h
OVCAR-3 ovarian = system: OVCAR-3 ovarian
UACC-62 melanoma = system: UACC-62 melanoma
HS 578T breast = system: HS 578T breast
MCF7 breast = system: MCF7 breast
LOX IMVI melanoma = system: LOX IMVI melanoma
CAKI-1 renal = system: CAKI-1 renal
MOLT-4 leukemia = system: MOLT-4 leukemia
SF-539 CNS = system: SF-539 CNS
U251 CNS = system: U251 CNS
SF-268 CNS = system: SF-268 CNS
HCC-2998 colon = system: HCC-2998 colon

Structure (SMILES)	TGI (OVCAR-3 ovarian)	TGI (UACC-62 melanoma)	TGI (HS 578T breast) [µM]	TGI (MCF7 breast)	TGI (LOX IMVI melanoma)	TGI (CAKI-1 renal)	TGI (MOLT-4 leukemia)	TGI (SF-539 CNS) [µM]	TGI (U251 CNS)	TGI (SF-268 CNS)	TGI (HCC-2998 colon)	GI50 (CAKI-1 renal)	GI50 (SF-268 CNS) [µM]
C=CC(Br)(CBr)CCC(Br)C(C)C (stereo not drawn)	8.9 µM	12.5 µM	7.73	3.75 µM	3.1 µM	16.3 µM	5.21 µM	6.02	12.6 µM	25.7 µM	–	–	–
CN1C(=O)N(C)C2(CCN(CCCCCCF)CC2)C1=O	> 100 µM	> 100 µM	–	> 100 µM	> 100 µM	> 100 µM	–	> 100	> 100 µM	> 100 µM	> 100 µM	–	–
CCN(CC)CCNc1ccc2ncn3c4cc(=O)ccc4c(O)c1c23	6.36 µM	14 µM	–	–	5.91 µM	13.4 µM	6.15 µM	15.1	6.59 µM	12.1 µM	15.6 µM	–	–
O=C1N[C@@H](COc2ccc(C=Nc3ccc(CCc4ccc(N=Cc5ccc(OC[C@@H]6COC(=O)N6)cc5)cc4)cc3)cc2)CO1	> 100 µM	> 100 µM	> 100	–	> 100 µM	> 100 µM	> 100 µM	–	> 100 µM	> 100 µM	–	–	–
CCCCNC(=S)Nc1nc(C(=O)NNC(=O)c2ccccc2)cs1	19.7 µM	41.4 µM	–	–	21.7 µM	39 µM	> 100 µM	–	> 100 µM	> 100 µM	27.5 µM	–	–
c1ccc(CCn2cncn2)cc1	> 100 µM	> 100 µM	–	–	–	–	> 100 µM	> 100	> 100 µM	> 100 µM	> 100 µM	–	–
O=S(=O)(/N=C(\NO)Nc1ccc(Cl)cc1)c1ccc(-c2ccccn2)s1	40.2 µM	> 100 µM	> 100	–	> 100 µM	66 µM	> 100 µM	> 100	> 100 µM	> 100 µM	–	–	–
Cc1cc(C)c(N=Nc2c(O)c(S(=O)(=O)O)cc3cc(S(=O)(=O)O)ccc23)cc1C	> 100 µM	> 100 µM	> 100	–	> 100 µM	> 100 µM	> 100 µM	–	> 100 µM	> 100 µM	–	–	–
COc1cc2c(cc1OCCCCCOc1cc3c(cc1OC)C(=O)N1CCC[C@H]1CN3)N=C[C@@H]1CCCN1C2=O	44.7 µM	6.72 µM	50.4	> 100 µM	3.06 µM	44.1 µM	9.24 µM	20.4	5.24 µM	61.8 µM	–	–	–
COc1ccccc1N=C1SCCN1C(=S)Nc1ccc(S(=O)(=O)/N=C/N(C)C)cc1	> 100 µM	75.9 µM	–	83.7 µM	> 100 µM	> 100 µM	> 100 µM	> 100	> 100 µM	55.2 µM	> 100 µM	–	–
NC(N)=NCC(N)C(=O)O (stereo not drawn)	> 100 µM	> 100 µM	> 100	> 100 µM	> 100 µM	> 100 µM	–	> 100	> 100 µM	> 100 µM	–	–	–
CC1(C)C2CCC(N)(C2)C1O (stereo not drawn)	> 100 µM	> 100 µM	–	> 100 µM	> 100 µM	> 100 µM	> 100 µM	–	> 100 µM	–	> 100 µM	–	–
CC1(C)c2ccccc2C(O)C12CCC(=O)CC2 (stereo not drawn)	> 100 µM	> 100 µM	> 100	–	> 100 µM	–	–	> 100	> 100 µM	> 100 µM	> 100 µM	–	–
C#CCOC(=O)C(N)CCSC (stereo not drawn)	> 100 µM	> 100 µM	> 100	> 100 µM	> 100 µM	> 100 µM	> 100 µM	–	> 100 µM	> 100 µM	–	–	–
CCCCCCCCCCSCC(CO)NC(=O)/C=C/c1c(C)[nH]c(=O)[nH]c1=O (stereo not drawn)	3.05 µM and 9.12 µM	7.71 µM and 9.48 µM	–	> 19.3 µM and 17.4 µM	23.8 µM and > 50 µM	8.25 µM and > 50 µM	16.8 µM and 9.45 µM	> 36.5	3.7 µM and 10.7 µM	10.2 µM and > 21.4 µM	7.38 µM and 11.5 µM	1.01 µM and 3.68 µM	0.895
COC(=O)[C@H](CCSC)NC(=O)c1ccc(CNC(=O)/C(C)=C/c2ccccc2)cc1	> 100 µM	> 100 µM	–	> 100 µM	> 100 µM	> 100 µM	> 100 µM	61.2	> 100 µM	70.1 µM	83.6 µM	–	–
Cc1ccc2c(=O)c(-c3n[nH]c(=S)s3)c[nH]c2n1	> 100 µM	> 100 µM	> 100	> 100 µM	> 100 µM	> 100 µM	> 100 µM	–	> 100 µM	> 100 µM	–	–	–
O=C(NN=C1CCCCC1)NN=C1CCCCC1	> 100 µM	> 100 µM	> 100	> 100 µM	> 100 µM	> 100 µM	> 100 µM	–	> 100 µM	–	–	–	–
CN1B(c2ccccc2)N(C)C(=O)N(C)C1=O	–	> 100 µM	> 100	> 100 µM	–	> 100 µM	–	> 100	> 100 µM	> 100 µM	–	–	–
CN(CCO)/N=N/c1[nH]ncc1C(N)=O	> 100 µM	> 100 µM	–	> 100 µM	> 100 µM	> 100 µM	> 100 µM	> 100	> 100 µM	> 100 µM	> 100 µM	–	–

Source: PubChem BioAssay (NCI)
